Experimental data: patent US11352315B2, “Compositions and methods comprising a triaryl polyamine” (Curza Global, LLC, priority 2017, dated 2022)
In brackets after ≈: the same amount, converted by molar mass.

Columns and labels:
[1] = test system: A. baumannii ATCC BAA 1605 biofilms; experiment: Biofilm efficacy in CAMHB broth, CDC biofilm reactor (Example 5); assay type: cell-based, Acinetobacter baumannii; conditions: 24 hr
Procedure: (§8) The isolate was maintained on Columbia blood agar and passaged as necessary with overnight incubation at 37° C.
Biofilms were grown on polycarbonate coupons in a CDC biofilm reactor following the manufacturer's recommendation. Once assembled and autoclaved, the reactor was inoculated. To do so, a fresh overnight culture of A. baumannii was used to make a 0.5 McFarland standard of the bacterial isolate (˜5×10^7 CFU/mL). One mL of the 0.5 McFarland solution was inoculated into 500 mL of BHI in the CDC biofilm reactor. The reactor was placed on a hot plate set at 34° C. and a baffle rotation of 130 rpm for 24 hr. After 24 hr batch growth, a continuous flow of 10% BHI was flowed through the reactor at ˜6.9 mL/min for an additional 168 hr (7 days).
A 100 μL aliquot of broth was removed and plated using a 10-fold dilution series in order to quantify the CFU/coupon that remained. Testing was performed with n=3 repeats per concentration. A baseline of growth was determined by quantifying n=3 coupons/reactor immediately following growth.

[2] = test system: A. baumannii ATCC BAA 1605; experiment: MIC testing against the planktonic phenotype (Example 5); assay type: cell-based; conditions: Acinetobacter baumannii, BAA1605, 24 hr at 37° C.
Procedure: as §8
Minimum inhibitory concentration (MIC) testing against the planktonic phenotype was performed first. To do so, a modified protocol of the Clinical and Laboratory Standards Institute (CLSI) guideline M100 was used. In short, using a fresh overnight culture of bacteria, a 0.5 McFarland standard was made in PBS using a nephelometer, then diluted to achieve a concentration of ˜7.5×10^5 CFU/mL. A 96-well plate was set up such that a final volume of 100 μL was present in each well. Column 1 served as the negative control of growth (antibiotic only without bacteria added) and Column 11 served as the positive control of growth (bacteria only, no antibiotic).
Into columns 2-11, 50 μL of CAMHB were added to each well. […] The solution was mixed, then 50 μL were removed and added to wells of column 3. This 1:2 dilution process was continued through column 10. Lastly, into each well of columns 2-11, 50 μL of the prepared bacterial solution were added. […] The 96-well plate was covered with adhesive film and incubated 24 hr at 37° C. The concentration of antibiotic that inhibited pellet formation or turbidity was considered the MIC.

[3] = test system: MRSA; experiment: MIC analysis; assay type: cell-based; conditions: Staphylococcus aureus, 24 hours
Procedure: (§1) A clinical strain of MRSA, isolated from a patient who underwent arthroscopic knee surgery and characterized by ARUP Laboratories, Salt Lake City, Utah, was used for this study in addition to Pseudomonas aeruginosa ATCC 27853 and Alcanivorax borkumensis ATCC 700651. P. aeruginosa was resuspended in BHI broth, grown overnight at 37° C. and transferred to fresh BHI with 30% glycerol for storage at −80° C. The MRSA isolate was likewise stored in BHI with 30% glycerol at −80° C. […] Before performing MIC analysis and biofilm experiments, the frozen stocks of MRSA and P. aeruginosa were streaked onto Columbia blood agar plates and grown overnight at 37° C. A. borkumensis ATCC 700651 was resuspended from a lyophilized pellet into marine broth, grown overnight at 30° C. and passaged on marine agar plates prior to experimentation.
(§2) To determine the MIC of polyamine compounds, the protocol described herein was used.
(§3) In brief, a 0.5 McFarland of each bacterial isolate was made. A 0.5 McFarland is a measure of turbidity in a liquid sample that contains approximately 1×10^^8 CFU/mL. The 0.5 McFarland standard was diluted in cation adjusted Mueller Hinton Broth (CAMHB), and 50 μL of broth were added to a well of a 96-well plate. In addition, 50 μL of CAMHB that contained a desired concentration of antimicrobial were also added to the well for a final volume of 100 μL and a final concentration of approximately 5×10^4 CFU/well (which equated to approximately 5×10^5 CFU/mL). Each well contained a desired amount of polyamine compound in order to experimentally determine the MIC. Each 96-well plate was incubated at 37° C. for 24 hours. The contents of each well were plated on tryptic soy agar (TSA). TSA plates were incubated for 37° C. for 24 hours after which the number of CFU were counted and used to calculate the CFU/mL that remained after exposure to varying concentrations of compound. This procedure was repeated n=8 times for each concentration of antimicrobial.

[4] = test system: P. aeruginosa; experiment: MIC analysis; assay type: cell-based; conditions: Pseudomonas aeruginosa, 24 hours
Procedure: as §1, §2, §3

[5] = test system: A. baumannii; experiment: In vivo efficacy, porcine excision wound model (Example 6); design: species or system Acinetobacter baumannii; conditions: for Last Day that A. baumannii was Detected in At Least One Wound by Culture Swab / Log10 Transformed CFU/g Tissue at Necropsy (Day 28) / Last Day that A. baumannii was Detected in At Least One Wound: pig
Excerpt: Four Yorkeshire pigs with weight in the range of approximately 40-50 kg were quarantined for a minimum of 7 days. Positive reinforcement (Swedish Fish®, marshmallows, Snickers® bars, fruit and/or other treats) was provided once daily to help the pigs become accustom to having their back manipulated—e.g., a back scratch with a soft brush—by a research team member. A custom-fit jacket was also placed on pigs during the acclimation period to allow them to become aware of the covering that would be on their body.
The night before a surgical procedure was to be performed, pigs were fasted. To perform surgery, pigs were anesthetized initially with a combination of tiletamine-zolazepam (Telazol®; 4.4 mg/kg), Ketamine (2.2 mg/kg) and Xylazine (2.2 mg/kg). Pigs were intubated, given isoflurane inhalant at 0.5-5.0%, transported to a surgical suite, placed in sternal recumbency and clipped/razor-shaved of hair in the region where excision wounds would be created. Pigs were rotated to dorsal recumbency and the jugular vein area was sterilely prepped using alternating betadine/isopropyl alcohol. Once prepped, the site was sterilely draped and a VAP was implanted. To do so, a ventral midline incision was made to isolate the jugular vein. A catheter was placed in the vein and secured. A second incision was made on the dorsal side of the neck and a tunnel created along the subcutaneous space from the second incision to the jugular vein. The catheter was passed through the tunnel. A VAP was anchored subdermally in the dorsal neck space with non-absorbable suture (e.g., Proline). The catheter was connected to the VAP and secured in the jugular vein. Both incision sites were closed using absorbable suture (e.g., Vicryl).
With a VAP in place, a pig was rotated to sternal recumbency. The back was sterilely prepped for surgery, then draped. Using a 1 cm biopsy punch, excision wounds were created with a separation of approximately 2 cm between each wound. Wounds were organized into three or four sections with n=8 wounds/section (see FIG. 5). To reduce bleeding during wound creation, wound beds were treated with μL quantities of dilute epinephrine (1 mg/mL) as needed by the surgeon. Sterile saline-soaked gauze sponges were placed on excised wounds to maintain moisture as additional wounds were created. Once created, wounds were inoculated with bacteria (with the exception of negative control wounds) in either the planktonic or biofilm phenotype (see FIG. 5).
For wounds inoculated with planktonic bacteria, 2-3 colonies from a fresh overnight culture of A. baumannii were adjusted to a turbidity of 10% (˜1×10^9 CFU/mL) in sterile PBS using a nephelometer. One hundred L were pipetted into wound beds on the left flank of an animal (see FIG. 5).
Biofilm inoculation was performed by first growing biofilms on absorbable collagen for a total of 192 hrs (8 days) as described and transported to the OR in approved containers. Once the excision wounds were created, biofilm-containing collagen coupons were aseptically placed into wounds (one coupon/wound) on the right flank of an animal (see FIG. 1). […] Following inoculation, tincture of benzoin was applied to the border of each wound section to help maintain bandage adherence. Wounds were bandaged with a non-stick Telfa pad and Tegaderm. A custom jacket was also placed to further protect bandaging. Pigs were recovered and allowed to eat and drink ad libitum.
All wounds were reinoculated with planktonic or biofilm bacteria once daily for 3 days following the surgical procedure (total of 4 inoculations). […] To perform the reinoculations, planktonic bacteria were made fresh each day.

[6] = test system: A. baumannii; experiment: Wound healing study, porcine excision wound model (Example 3); assay type: in vivo, Acinetobacter baumannii; conditions: for CFU/g Tissue: necropsy at 28 days
Procedure: An IACUC-approved in vivo analysis utilized an excision wound model in swine. Up to 32 partial thickness wounds were created/animal using a 1 cm biopsy punch (FIG. 1A). Wounds were inoculated with ^˜1×10^8 colony forming units (CFU) of A. baumannii in the planktonic or biofilm phenotype. Well-established biofilms were grown on the surface of bio-absorbable collagen in a modified CDC biofilm reactor for 8 days (FIG. 1B). An n=8 wounds were used for each treatment group.
For the treatment groups, infection was allowed to establish in each wound for 5 days after which time treatment with an antimicrobial began. […] In a separate pig, wounds were inoculated as above and a combination of colistin/imipenem (2.5 mg/each) was administered IV for 14 days for comparison to the current clinical standard of care for A. baumannii. […] Swine were monitored for 28 days. Wound size was measured daily. Culture swabs were collected regularly. At the time of necropsy, a 5 mm biopsy punch was used to collect tissue and calculate CFU/g using standard microbiological procedure. ANOVA analysis was used to compare differences in data with alpha 0.05.

[7] = test system: A. baumannii; experiment: EBEC analysis, high number biofilms on PEEK membranes; assay type: cell-based, Acinetobacter baumannii; conditions: 24 hours
Procedure: (§4) To determine the efficacy of polyamine compounds against high number biofilms, biofilms were grown on the surface of polyetheretherketone (PEEK) membranes using a membrane biofilm reactor. This reactor was similar to the CDC biofilm reactor, but rather than growing biofilms on coupon surfaces, the reactor was modified to hold PEEK membranes. In short, to grow biofilms within this system, 500 mL of brain heart infusion (BHI) broth were inoculated with 1 mL of a 0.5 McFarland. The reactor was placed on a hot plate set at 34° C. and the bacteria were grown under batch conditions for 24 hours.
(§5) A solution of 10% BHI was then flowed through the reactor at a rate of 6.94 mL/min for an additional 24 hours. PEEK membranes were then removed and placed into 2 mL of CAMHB that contained a desired concentration of polyamine compound or antibiotic. The EBEC was defined as the concentration of antimicrobial required to reduce a biofilm from approximately 10^9 CFU/PEEK membrane to approximately 10^2 CFU/PEEK membrane in a 24-hour period.

[8] = test system: MRSA; experiment: as above; assay type: cell-based, Staphylococcus aureus; conditions: 24 hours
Procedure: as §4, §5

[9] = test system: A. baumannii; experiment: MIC analysis; assay type: cell-based; conditions: Acinetobacter baumannii, 24 hours
Procedure: as §2, §3

[10] = test system: MRSA; experiment: MBEC analysis, MBEC Inoculation Tray (column headed MBC); assay type: cell-based; conditions: Staphylococcus aureus, 24 hours
Excerpt: (§6) To determine the MBEC of each polyamine compound, the MBEC Inoculation Tray by Innovotech, formerly known as the Calgary biofilm device, was used. Within this device, biofilms grow on the surface of polystyrene pegs, 96 of which are attached to a lid. These pegs are inserted into a flat bottom 96-well plate. In this instance, the MBEC of a molecule was defined as the concentration of compound (in μg/mL) required to reduce 10^5 or 10^6 CFU/peg (biofilm levels varied by isolate) to 10^2 CFU/peg in a 24-hour period.
(§7) Following the manufacturer's guidelines, biofilms were grown on the surface of each peg by first making a 0.5 McFarland of each isolate. The 0.5 McFarland was diluted 1:100 in CAMHB. Into each well of a flat bottom 96-well plate, 150 μL of broth were pipetted. The plate was shaken at 100 rpm for 24 hours (P. aeruginosa and A. baumannii) or 48 hours (MRSA). The pegs were then placed into a separate flat bottom 96-well plate for 10 seconds with 200 μL of phosphate buffered saline (PBS) in each well to remove nonadherent cells. The lid was then placed into a 96-well plate that contained varying concentrations of antimicrobial with 200 μL per well. The plate was incubated for 24 hours at 37° C. after which time 100 μL of broth were plated on TSA. TSA plates were incubated 24 hours at 37° C. and the number of CFU counted to calculate the CFU/peg. In this instance, the MBEC was defined as the concentration of antimicrobial required to reduce 10^5 or 10^6 CFU/peg to 10^2 CFU/peg in a 24 hour period.

[11] = test system: A. baumannii; experiment: as above; assay type: cell-based; conditions: Acinetobacter baumannii, 24 hours
Excerpt: as §6, §7

[12] = test system: P. aeruginosa; experiment: as above; assay type: cell-based; conditions: Pseudomonas aeruginosa, 24 hours
Excerpt: as §6, §7

[13] = test system: P. aeruginosa; experiment: EBEC analysis, high number biofilms on PEEK membranes; assay type: cell-based, Pseudomonas aeruginosa; conditions: 24 hours
Procedure: as §4, §5

[14] = debrided wounds, biofilm phenotype
[15] = debrided wounds, planktonic phenotype
[16] = undebrided wounds, biofilm phenotype
[17] = undebrided wounds, planktonic phenotype

CCC(CC)CNCCCNCCCNCc1ccc(-c2cc(-c3ccc(CNCCCNCCCNCC(CC)CC)cc3)cc(C(C)(C)C)c2)cc1 [CZ-1-179, N^1,N^1′-((5′-(tert-butyl)-[1,1′:3′,1″-terphenyl]-4,4″-diyl)bis(methylene))bis(N^3-(3-((2-ethylbutyl)amino)propyl)propane-1,3-diamine)]
CFU/coupon remaining ([1]; 0.00125% (12.5 μg/mL)): ~9.2×10^5 CFU/coupon
log10 reduction of biofilm ([1]; 0.00125% (12.5 μg/mL)): ~2 log10
CFU/coupon remaining ([1]; […] (25 μg/mL)): ~4.8×10^3 CFU/coupon
log10 reduction of biofilm ([1]; […] (25 μg/mL)): ~4 log10
eradication of biofilms ([1]; concentrations from 2% (20 mg/mL) down to 0.005% (50 μg/mL), polycarbonate coupons): full eradication of biofilms
MIC [2]: 2 µg/mL (≈ 2.7 µM)
MIC [3]: 0.5 µg/mL (≈ 0.675 µM)
MIC [4]: 4 µg/mL (≈ 5.4 µM)
Day after which A. baumannii was no longer detected by culture ([5]; Pig 2 (topical agents only)): 6 days
A. baumannii by culture on Day 6 ([5]; Pig 4 (IV+topical products)): none of the wounds
Day on which healing was obvious ([5]; Pig 4 (IV+topical products)): ≤ 8 days
Day on which signs of infection resolved ([5]; Pig 4 (IV+topical products)): ≤ 6 days
Day on which wound contraction was notable ([5]; Pig 4 (IV+topical products), biofilm wounds): ≤ 7 days
Day on which wound contraction was notable ([5]; Pig 4 (IV+topical products), planktonic wounds): ≤ 7 days
reduction of bioburden ([5]; Pig 4, in combination with IV antibiotics): reduced completely within two weeks
days sooner signs of infection cleared than the host alone ([5]; pig wounds): 3 to 4 days
Last Day that A. baumannii was Detected in At Least One Wound by Culture Swab [5, 14]: 5
Log10 Transformed CFU/g Tissue at Necropsy (Day 28) [5, 14]: 0
Last Day that A. baumannii was Detected in At Least One Wound by Culture Swab [5, 15]: 5
Log10 Transformed CFU/g Tissue at Necropsy (Day 28) [5, 15]: 0
Last Day that A. baumannii was Detected in At Least One Wound [5, 16]: 5
Log10 Transformed CFU/g Tissue at Necropsy (Day 28) [5, 16]: 0
Last Day that A. baumannii was Detected in At Least One Wound [5, 17]: 5
Log10 Transformed CFU/g Tissue at Necropsy (Day 28) [5, 17]: 0
CFU/g Tissue ([6]; swine wounds inoculated with biofilm bacteria): 0.00 CFU/g Tissue
CFU/g Tissue ([6]; swine wounds inoculated with planktonic bacteria): 0.00 CFU/g Tissue
speed of eradication of A. baumannii ([6]; swine wounds, topical): faster than SSD
EBEC [7]: 500 µg/mL
EBEC [8]: 250 µg/mL
MIC [9]: 2 µg/mL (≈ 2.7 µM)
MBC [10]: 1 µg/mL (≈ 1.35 µM)
MBC [11]: 4 µg/mL (≈ 5.4 µM)
MBC [12]: 4 µg/mL (≈ 5.4 µM)

CC(C)CCNCCCNCCCNCc1cccc(-c2cc(-c3cccc(CNCCCNCCCNCCC(C)C)c3)cc(C(C)(C)C)c2)c1 [CZ-1-182, N^1,N^1′-((5′-(tert-butyl)-[1,1′:3′,1″-terphenyl]-3,3″-diyl)bis(methylene))bis(N^3-(3-(isopentylamino)propyl)propane-1,3-diamine)]
EBEC [13]: 150 µg/mL
MIC [3]: 0.25 µg/mL (≈ 0.351 µM)
MIC [4]: 4 µg/mL (≈ 5.61 µM)
EBEC [7]: 300 µg/mL
EBEC [8]: 100 µg/mL
MIC [9]: 32 µg/mL (≈ 44.9 µM)
